Assay results taken from US20030195183A1, “Method for correcting immune system of live body” (priority 2000, published 2003).
“And” between values parts separate entries of the source, which are not always exact repeats. Identical values can stand only once.

Key:
neutrophils = assay: neutrophil phagocytosis in vitro; format: cell-based, human; conditions: for Phagocytic Index, Study Group / Phagocytic number, Study Group: individual samples
Description: For evaluating the effect of the preparation on phagocytosis in vitro, blood sample was collected from donor's cubital vein in a test tube containing heparin at a dose of 10 units per ml of blood. 0.8 ml of 3% gelatin prepared based on Medium 199 were added to 2 ml of blood. The test tubes were incubated in a thermostat at 37° C. for 20 minutes. Then the supernatant containing cells was aspirated to a centrifuge tube. Cells were twice washed with Medium 199 with centrifuging at 1,000 rpm. 1 ml of Medium 199 was added to the sediment and neutrophils were counted in Goryaev's chamber. Then, cellular suspension containing 2·10^6 neutrophils in 1 ml was prepared based on Medium 199. Simultaneously, suspension of St. aureus in a concentration of 20·10^6/ml was prepared. After preliminary opsonization with an equal volume of pooled human plasma in a thermostat at 37° C. for 20 minutes, the Staphylococcus suspension was centrifuged and washed with Medium 199. The preparation in 200, 20 and 2 μg/ml concentrations was added to mixture of equal volumes of neutrophils and staphylococci; Medium 199 was added to control test tubes. After incubation in a thermostat at 37° C. for 30 minutes, the test tubes where centrifuged, and preparations were prepared in accordance with the procedure described above. Phagocytic index and phagocytic number for study group were compared with the same for control group.

phagocytic cells = assay: phagocytosis in vivo (peritoneal neutrophils and macrophages, St. aureus); parameters: species or system Strain C57BL6 mice
Description: Intraperitoneal injection of 3 ml of 3% peptone was made, and 2 hours later the animals were killed with chloroform. The mice were autopsied in aseptic conditions. Liquid was aspirated from abdominal cavity with a Pasteur's pipette and transferred to centrifuge test tubes; then centrifuging was carried out for 10 minutes at 1,000 rpm. […] Similar volume of Strain 1991 St. aureus was added to cells in a proportion of 1:10 proportion and incubated at 37° C. for 30 minutes. After incubation, smears were prepared on slides, fixed in methanol for 20 minutes and processed with Romanovsky-Giemsa's stain for 30 minutes. For evaluating the phagocytic activity of macrophages, the animals were tested on the third day after administration of peptone. Further testing was carried out similarly with that of neutrophils. The results were evaluated using a microscope at a magnification of 90×. Phagocytic index and phagocytic number were determined.

[1] = clinical study, treatment of acute intestinal infections (AII); format: in vivo, human
Description: Efficacy of the preparation in decreasing the gravity of manifestations of various forms of AII was evaluated in accordance with the used program of study with aid of a three-point scale.
After the study was finished, general evaluation of clinical efficacy and safety of the preparation based on a 4-point scale, depending on nosologic forms, was carried out.

[2] = system: macrophages, interleukins and other acute phase proteins; conditions: e.g. patients with malignant tumors; dose range of 10 to 1000 mg; cited from earlier work
[3] = third dose group, dose cell empty
[4] = Acute gastroenteritis, 4 patients
[5] = Alimentary toxoinfection, 4 patients

## Nc1cccc2c(=O)[nH][nH]c(=O)c12.[K] [potassium salt of 5-amino-2,3-dihydrophthalazine-1,4-dione]
neutrophils; dose 20 μg
  Phagocytic Index, Study Group, Mean: 7.8 ± 0.04
  Phagocytic number, Study Group, Mean: 89 ± 1.25
  Phagocytic Index, Study Group: 3.9 and 2.8 and 4.6 and 6.8 and 13.2 and 9.1 and 16.3 and 5.2
  Phagocytic number, Study Group: 80 and 96 (2×) and 88 and 94 and 84 (2×) and 86
neutrophils; dose 200 μg
  Phagocytic Index, Study Group, Mean: 6.0 ± 0.04
  Phagocytic number, Study Group, Mean: 77 ± 0.26
  Phagocytic Index, Study Group: 5.6 and 4.7 and 9.1 and 6.4 and 7.4
  Phagocytic number, Study Group: 78 and 85 and 84 and 71 and 67
neutrophils; doses of 20 and 2 μg
  ability of neutrophils population to intake microbial cells: statistically significant increase
  effect on digestive activity of neutrophils: practically no effect
neutrophils; [3]
  Phagocytic Index, Study Group, Mean: 6.0 ± 0.16
  Phagocytic number, Study Group, Mean: 86 ± 0.32
  Phagocytic Index, Study Group: 6.4 (2×) and 4.5 and 7.4 and 5.6
  Phagocytic number, Study Group: 88 and 92 (2×) and 78 and 84
Phagocytic cells; dose 200 μg
  stimulating effect on phagocytic cells / phagocytic activity in vivo: no stimulating effect
Phagocytic cells; doses of 2 ug and 20 ug
  ability of phagocytic cells to intake microbial cells: statistically significant increase
Phagocytic cells; doses ranging from 200 to 2 μg
  phagocytic activity of macrophages in mice: stimulating effects
[1]; 20 patients with various forms of AII
  patients with "excellent" or "good" effect: 90 % of patients
[1]; Acute dysentery, 9 patients
  Efficacy of the preparation: Excellent (number of patients): 1
  Efficacy of the preparation: Good (number of patients): 7
  Efficacy of the preparation: Satisfactory (number of patients): 1
[1]; [4]
  Efficacy of the preparation: Excellent (number of patients): 2
  Efficacy of the preparation: Good (number of patients): 1
  Efficacy of the preparation: Satisfactory (number of patients): 1
[1]; [5]
  Efficacy of the preparation: Excellent (number of patients): 1
  Efficacy of the preparation: Good (number of patients): 3
[1]; Salmonellosis, 3 patients
  Efficacy of the preparation: Excellent (number of patients): 1
  Efficacy of the preparation: Good (number of patients): 2
[1]; Total, 20 patients
  Efficacy of the preparation: Excellent (number of patients): 5
  Efficacy of the preparation: Good (number of patients): 13
  Efficacy of the preparation: Satisfactory (number of patients): 2
[1]; of 20 patients
  patients in whom the intoxication syndrome resolved within 1 to 3 days ("complete decrease"): 19 patients
  patients with "insignificant decrease" in the first days and "complete decrease" by the 5th day of treatment: one
[1]; of 20 patients with various forms of AII
  patients with "excellent" or "good" effect: 18 patients

## Nn1[n-]c(=O)c2ccccc2c1=O.O.O.[Na+] [sodium salt of 2-amino-1,2,3,4-tetrahydrophthalazine-1,4-dione, dihydrate]
[2]
  effect in patients with weak cellular immunity reactions: activation of macrophages, interleukins and other acute phase proteins
